According to patent US20140128747A1, “ASSESSING E[…] USING A BLOOD PRESSURE CUFF” (THE REGENTS OF THE UNIVERSITY OF CALIFORNIA, priority 2011, published 2014):
Entries after “also recorded” stand apart in the source; their conditions may differ.

Tests used:
human subjects = experiment: Blood pressure cuff measurement of pulse amplitude (arterial area) and compliance response to sublingual nitroglycerin; format: in vivo; settings: 0.4 mg sublingual NG, FIG. 10, all cases where NG was administered
Description: We contend that such studies are unnecessary in order to make a determination that a method is effective in assessing endothelial function. Physical methods for arterial EF evaluation typically measure changes in the material properties of the artery. […] A major advantage of this method is that response to NG is intact even in individuals with endothelial dysfunction, so there is no need to perform a correlation analysis between two measurements.
We examined three individuals in the age-range 28-38. All subjects had Framingham risk scores of 1% or less, and had no history of cardiovascular disease. Each individual was assessed at least three times before and after RH induced by five minutes of suprasystolic cuff occlusion. […] Sensitivity to a 0.4 mg dose of sublingual NG was assessed three times in two individuals.
Sensitivity to a 0.4 mg dose of sublingual NG was assessed three times in two individuals.
We studied a single quantity relating to the recorded pressure data: the pulse amplitude, which we posit is proportional to the arterial area. During the post stimulus interval, pressure data from the cuff were recorded approximately every 80 seconds, for a period of 30 seconds. During each recording interval, the cuff was inflated to 70 mmHg, which was always below the measured diastolic pressure of the subject. […]

NO synthase = experiment: Cuff single pulse waveform after endothelial stimulation with NO synthase blocked; format: in vivo, human; settings: cuff inflated to 70 mmHg, FIG. 3
Description: Both the amplitude and slope of the rising edge of the pulse increase markedly after endothelial stimulation.
In an artery with intact endothelial function, both pulse height (maximal cross-sectional arterial area) and compliance (maximum slope of the rising edge) increase markedly over baseline. […] FIG. 4 illustrates how a five minute cuff occlusion and the ensuring reactive hyperemia lead to major increases in area change per pulse and the maximum derivative of the area per pulse. Both metrics return to baseline levels after 20 minutes. FIG. 5 confirms the repeatability of the protocol by illustrating the effects of a series of two cuff occlusion periods. We see from FIG. 6 that only a small slow drift in the measured quantities occurs when no reactive hyperemic stimulus is applied.
A stimulus is then applied to the subject. Any of a number of stimuli expected to alter endothelial function are contemplated. Such stimuli include, for example, occlusion of blood flow, and/or application of one or more drugs to the subject. Illustrative drugs include, for example, drugs that act as NO agonists (e.g. acetylcholine), β2-adrenergic agonists such as albuterol, acoustic/mechanical tissue vibration, transcutaneous low frequency ultrasound (see, e.g., Iida et al. (2006) J. Amer. Coll. Cardiol., 48(3): 532-537), and the like. […]

O=[N+]([O-])OCC(CO[N+](=O)[O-])O[N+](=O)[O-] [NG, nitroglycerin]
increase in relative change in area (human subjects): more than 30% | increase in relative change in compliance (human subjects): more than 30%

COC(=O)[C@@H](N)CCCNC(=N)N[N+](=O)[O-] [L-NAME]
effect on increase of pulse amplitude (height) and slope of rising edge after endothelial stimulation (NO synthase): greatly attenuates this response; also recorded: greatly attenuated
